Data on 14 compounds can be found in article PMC8762706, “Design of Coibamide A Mimetics with Improved Cellular Bioactivity” (ACS Medicinal Chemistry Letters, 2021).

In this series the test system is A549 cells. As to the kind of experiment: Growth inhibition assay (MTS) in A549 cells. The format is cell-based. The note with it: for IC50: read-out: IC50 (concentration for 50% growth inhibition of A549 cells), MTS assay, 72 h treatment, 0.5% DMSO, absorbance 490 nm, n = 3. Here is the method: Growth Inhibition AssayS3
A549 cells were cultured in Dulbecco’s modified Eagle’s medium (DMEM; Sigma) supplemented with 10% (v/v) fetal bovine serum at 37 °C in a 5% CO2-incubator. Growth inhibition assays using A549 cells were performed in 96-well plates (BD Falcon). A549 cells were seeded at 1000 cells/well in 90 μL of culture media, respectively, and were cultured for 24 h. Chemical compounds in DMSO were diluted 50-fold with the culture medium in advance. 30 μL of the chemical diluents were added.
The final volume of DMSO in the medium was equal to 0.5% (v/v). The cells under chemical treatment were incubated for a further 72 h. The wells in the plates were washed twice with the cultured medium without phenol-red. After 1-hour incubation with 100 μL of the medium, the cell culture in each well was supplemented with 20 μL of the MTS reagent (Promega), followed by incubation for additional 40 min. Absorbance at 490 nm of each well was measured using a Wallac 1420 ARVO SX multilabel counter (Perkin Elmer). Three experiments were performed per condition and the averages of inhibition rates in each condition were evaluated to determine IC50 values using the GraphPad Prism software.

SMILES strings stand for the structures. Where a SMILES comes first, the peptide text is derived from it. Bridges are numbered along the chain shown (N, C = ends). [ ]: non-standard residue; d: D form. The star is where a group is joined. Phe(4-NO2) = N[C@@H](Cc1ccc([N+](=O)[O-])cc1)C(=O)O; Phe(4-N3) = [N-]=[N+]=Nc1ccc(C[C@H](N)C(=O)O)cc1; Phe(4-CF3) = N[C@@H](Cc1ccc(C(F)(F)F)cc1)C(=O)O; Phe(4-tBu) = CC(C)(C)c1ccc(C[C@H](N)C(=O)O)cc1; Phe(4-CN) = N#Cc1ccc(C[C@H](N)C(=O)O)cc1; Phe(4-Cl) = N[C@@H](Cc1ccc(Cl)cc1)C(=O)O; dNMeaIle = CC[C@H](C)[C@@H](NC)C(=O)O; NMe2Val = CC(C)[C@@H](C(=O)*)N(C)C; NMeLys(Me) = CNCCCC[C@H](NC)C(=O)O; NMeF = CN[C@@H](Cc1ccccc1)C(=O)O; NMeI = CC[C@H](C)[C@H](NC)C(=O)O; NMeL = CN[C@@H](CC(C)C)C(=O)O; dHiv = CC(C)[C@@H](O)C(=O)O; NMeA = CN[C@@H](C)C(=O)O; dNMeA = CN[C@H](C)C(=O)O; CF3 = FC(F)(F)*; tBu = CC(C)(C)*

As for `CC[C@H](C)[C@@H]1NC(=O)[C@H](C)N(C)C(=O)[C@@H](N(C)C(=O)[C@H](CC(C)C)N(C)C(=O)[C@H](C)N(C)C(=O)[C@H](OC(=O)[C@H](C(C)C)N(C)C)C(C)C)CCCCN(C)C(=O)[C@H](Cc2ccc(OC)cc2)NC(=O)[C@H](CC(C)C)N(C)C(=O)[C@H](C)NC1=O` [8e] (NMe2Val-[dHiv][NMeA][NMeL][NMeLys(Me)][NMeA]IA[NMeL]Y(Me); lactam 4-C), the “fold decrease in cytotoxicity compared with peptide 2a” value (ratio of IC50 values to 2a) was “nine-fold or more lower”.
In the case of `CC[C@H](C)[C@H]1C(=O)N[C@@H](C)C(=O)N(C)[C@@H](CC(C)C)C(=O)N[C@@H](Cc2ccc(OC)cc2)C(=O)N(C)CCCC[C@H](N(C)C(=O)[C@H](CC(C)C)N(C)C(=O)[C@H](C)N(C)C(=O)[C@H](OC(=O)[C@H](C(C)C)N(C)C)C(C)C)C(=O)N(C)[C@H](C)C(=O)N1C` [9a] (NMe2Val-[dHiv][NMeA][NMeL][NMeLys(Me)][dNMeA][NMeI]A[NMeL]Y(Me); lactam 4-C), the IC50 was greater than 10 µM.
The same measure, in the same setting: in the case of `CC[C@H](C)[C@@H]1C(=O)N[C@@H](C)C(=O)N(C)[C@@H](CC(C)C)C(=O)N[C@@H](Cc2ccc(OC)cc2)C(=O)N(C)CCCC[C@H](N(C)C(=O)[C@H](CC(C)C)N(C)C(=O)[C@H](C)N(C)C(=O)[C@H](OC(=O)[C@H](C(C)C)N(C)C)C(C)C)C(=O)N(C)[C@@H](C)C(=O)N1C` [9b] (NMe2Val-[dHiv][NMeA][NMeL][NMeLys(Me)][NMeA][dNMeaIle]A[NMeL]Y(Me); lactam 4-C) it was greater than 10 µM.
For `CC[C@H](C)[C@H]1C(=O)N[C@H](C)C(=O)N(C)[C@@H](CC(C)C)C(=O)N[C@@H](Cc2ccc(OC)cc2)C(=O)N(C)CCCC[C@H](N(C)C(=O)[C@H](CC(C)C)N(C)C(=O)[C@H](C)N(C)C(=O)[C@H](OC(=O)[C@H](C(C)C)N(C)C)C(C)C)C(=O)N(C)[C@@H](C)C(=O)N1C` [9c] (NMe2Val-[dHiv][NMeA][NMeL][NMeLys(Me)][NMeA][NMeI][dA][NMeL]Y(Me); lactam 4-C), the IC50 is greater than 10 µM.
On the same count and under the same terms, under `CC[C@H](C)[C@H]1C(=O)N[C@@H](C)C(=O)N(C)[C@@H](CC(C)C)C(=O)N[C@H](Cc2ccc(OC)cc2)C(=O)N(C)CCCC[C@H](N(C)C(=O)[C@H](CC(C)C)N(C)C(=O)[C@H](C)N(C)C(=O)[C@H](OC(=O)[C@H](C(C)C)N(C)C)C(C)C)C(=O)N(C)[C@@H](C)C(=O)N1C` [9e] (NMe2Val-[dHiv][NMeA][NMeL][NMeLys(Me)][NMeA][NMeI]A[NMeL][dY](Me); lactam 4-C) stands greater than 10 µM; under `CC[C@H](C)[C@H]1C(=O)N[C@@H](C)C(=O)N(C)[C@@H](CC(C)C)C(=O)N[C@@H](Cc2ccc([N+](=O)[O-])cc2)C(=O)N(C)CCCC[C@H](N(C)C(=O)[C@H](CC(C)C)N(C)C(=O)[C@H](C)N(C)C(=O)[C@H](OC(=O)[C@H](C(C)C)N(C)C)C(C)C)C(=O)N(C)[C@@H](C)C(=O)N1C` [10b] (NMe2Val-[dHiv][NMeA][NMeL][NMeLys(Me)][NMeA][NMeI]A[NMeL][Phe(4-NO2)]; lactam 4-C), 1.1 ± 0.2 µM.
On the same count and under the same terms, in the case of `CC[C@H](C)[C@H]1C(=O)N[C@@H](C)C(=O)N(C)[C@@H](CC(C)C)C(=O)N[C@@H](Cc2ccc(C(F)(F)F)cc2)C(=O)N(C)CCCC[C@H](N(C)C(=O)[C@H](CC(C)C)N(C)C(=O)[C@H](C)N(C)C(=O)[C@H](OC(=O)[C@H](C(C)C)N(C)C)C(C)C)C(=O)N(C)[C@@H](C)C(=O)N1C` [10c] (NMe2Val-[dHiv][NMeA][NMeL][NMeLys(Me)][NMeA][NMeI]A[NMeL][Phe(4-CF3)]; lactam 4-C) it was 0.37 ± 0.07 µM; in that of `CC[C@H](C)[C@H]1C(=O)N[C@@H](C)C(=O)N(C)[C@@H](CC(C)C)C(=O)N[C@@H](Cc2ccc(C#N)cc2)C(=O)N(C)CCCC[C@H](N(C)C(=O)[C@H](CC(C)C)N(C)C(=O)[C@H](C)N(C)C(=O)[C@H](OC(=O)[C@H](C(C)C)N(C)C)C(C)C)C(=O)N(C)[C@@H](C)C(=O)N1C` [10d] (NMe2Val-[dHiv][NMeA][NMeL][NMeLys(Me)][NMeA][NMeI]A[NMeL][Phe(4-CN)]; lactam 4-C), 1.5 ± 0.5 µM; in that of `CC[C@H](C)[C@H]1C(=O)N[C@@H](C)C(=O)N(C)[C@@H](CC(C)C)C(=O)N[C@@H](Cc2ccc(N=[N+]=[N-])cc2)C(=O)N(C)CCCC[C@H](N(C)C(=O)[C@H](CC(C)C)N(C)C(=O)[C@H](C)N(C)C(=O)[C@H](OC(=O)[C@H](C(C)C)N(C)C)C(C)C)C(=O)N(C)[C@@H](C)C(=O)N1C` [10e] (NMe2Val-[dHiv][NMeA][NMeL][NMeLys(Me)][NMeA][NMeI]A[NMeL][Phe(4-N3)]; lactam 4-C), 0.38 ± 0.05 µM.
As to `CC[C@H](C)[C@H]1C(=O)N[C@@H](C)C(=O)N(C)[C@@H](CC(C)C)C(=O)N[C@@H](Cc2ccc(Cl)cc2)C(=O)N(C)CCCC[C@H](N(C)C(=O)[C@H](CC(C)C)N(C)C(=O)[C@H](C)N(C)C(=O)[C@H](OC(=O)[C@H](C(C)C)N(C)C)C(C)C)C(=O)N(C)[C@@H](C)C(=O)N1C` [10f] (NMe2Val-[dHiv][NMeA][NMeL][NMeLys(Me)][NMeA][NMeI]A[NMeL][Phe(4-Cl)]; lactam 4-C), the IC50 was 0.71 ± 0.19 µM.
The same measure, in the same setting: under `CC[C@H](C)[C@H]1C(=O)N[C@@H](C)C(=O)N(C)[C@@H](CC(C)C)C(=O)N[C@@H](Cc2ccc(C(C)(C)C)cc2)C(=O)N(C)CCCC[C@H](N(C)C(=O)[C@H](CC(C)C)N(C)C(=O)[C@H](C)N(C)C(=O)[C@H](OC(=O)[C@H](C(C)C)N(C)C)C(C)C)C(=O)N(C)[C@@H](C)C(=O)N1C` [10g] (NMe2Val-[dHiv][NMeA][NMeL][NMeLys(Me)][NMeA][NMeI]A[NMeL][Phe(4-tBu)]; lactam 4-C) stands 0.61 ± 0.21 µM.
On the same count and under the same terms, in the case of `CC[C@H](C)[C@H]1C(=O)N[C@@H](C)C(=O)N(C)[C@@H](CC(C)C)C(=O)N[C@@H](Cc2ccc(OC(C)(C)C)cc2)C(=O)N(C)CCCC[C@H](N(C)C(=O)[C@H](CC(C)C)N(C)C(=O)[C@H](C)N(C)C(=O)[C@H](OC(=O)[C@H](C(C)C)N(C)C)C(C)C)C(=O)N(C)[C@@H](C)C(=O)N1C` [10h] (NMe2Val-[dHiv][NMeA][NMeL][NMeLys(Me)][NMeA][NMeI]A[NMeL]Y(tBu); lactam 4-C) it was 1 ± 0.1 µM; in that of `CC[C@H](C)[C@H]1C(=O)N[C@@H](C)C(=O)N(C)[C@@H](CC(C)C)C(=O)N[C@@H](Cc2ccc(OC(F)(F)F)cc2)C(=O)N(C)CCCC[C@H](N(C)C(=O)[C@H](CC(C)C)N(C)C(=O)[C@H](C)N(C)C(=O)[C@H](OC(=O)[C@H](C(C)C)N(C)C)C(C)C)C(=O)N(C)[C@@H](C)C(=O)N1C` [10i] (NMe2Val-[dHiv][NMeA][NMeL][NMeLys(Me)][NMeA][NMeI]A[NMeL]Y(CF3); lactam 4-C), 0.32 ± 0.03 µM.
For `CC[C@H](C)[C@H]1C(=O)N[C@@H](C)C(=O)N(C)[C@@H](CC(C)C)C(=O)N(C)[C@@H](Cc2ccccc2)C(=O)N(C)CCCC[C@H](N(C)C(=O)[C@H](CC(C)C)N(C)C(=O)[C@H](C)N(C)C(=O)[C@H](OC(=O)[C@H](C(C)C)N(C)C)C(C)C)C(=O)N(C)[C@@H](C)C(=O)N1C` [10n] (NMe2Val-[dHiv][NMeA][NMeL][NMeLys(Me)][NMeA][NMeI]A[NMeL][NMeF]; lactam 4-C), the IC50 is greater than 10 µM. Under “MTS assay”, the “cytotoxicity / bioactivity in words” value is “loss of bioactivity”.
